Test results published in PubChem BioAssay (NCI).
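Where inhibition never reached the appropriate level, the endpoint shown equals the highest concentration tested. Otherwise, values were interpolated linearly from a five-concentration, 48-hour dose response in 96-well plates. Here, GI50 denotes the concentration required for 50% inhibition of growth. The concentration for full growth arrest is given as TGI.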

Assays:
Assay in all cases: inhibition of tumour cell growth, NCI panel, 48 h
UO-31 renal = system: UO-31 renal
HOP-62 NSCLC = system: HOP-62 NSCLC
CCRF-CEM leukemia = system: CCRF-CEM leukemia
M14 melanoma = system: M14 melanoma
MOLT-4 leukemia = system: MOLT-4 leukemia
RPMI-8226 leukemia = system: RPMI-8226 leukemia
UACC-257 melanoma = system: UACC-257 melanoma
HL-60(TB) leukemia = system: HL-60(TB) leukemia
CAKI-1 renal = system: CAKI-1 renal
TK-10 renal = system: TK-10 renal

Row | SMILES | GI50 (UO-31 renal) | TGI (UO-31 renal) | GI50 (HOP-62 NSCLC) | TGI (HOP-62 NSCLC) | GI50 (CCRF-CEM leukemia) | TGI (CCRF-CEM leukemia) | GI50 (M14 melanoma) | TGI (M14 melanoma) | GI50 (MOLT-4 leukemia) | TGI (MOLT-4 leukemia) | GI50 (RPMI-8226 leukemia) | TGI (RPMI-8226 leukemia) | GI50 (UACC-257 melanoma) | TGI (UACC-257 melanoma) | GI50 (HL-60(TB) leukemia) | TGI (HL-60(TB) leukemia) | GI50 (CAKI-1 renal) | TGI (CAKI-1 renal) | GI50 (TK-10 renal) | TGI (TK-10 renal)
1 | c1ccc(Cc2nc3ccc(Nc4ncnc5ccccc45)cc3[nH]2)cc1 | 8.98 µM | > 25 µM | > 25 µM | > 25 µM | > 25 µM | > 25 µM | > 25 µM | > 25 µM | > 25 µM | > 25 µM | 16.8 µM | > 25 µM | > 25 µM | > 25 µM | 20 µM | > 25 µM | 8.34 µM | > 25 µM | 5.85 µM | > 25 µM
2 | CSc1nc2c(c(=O)[nH]1)N=C1c3ccccc3C(=O)C1C(c1ccc(F)cc1)N2 (configuration not stated) | 16.3 µM | > 100 µM | 11.9 µM | 33.7 µM | 8.16 µM | > 100 µM | 6.29 µM | > 100 µM | 19.5 µM | > 100 µM | 4.2 µM | > 100 µM | 26 µM | > 100 µM | 6.54 µM | > 100 µM | 3.31 µM | 35.6 µM | 12.9 µM | 37.6 µM
3 | CCOc1ccc(N=Cc2cccc3cccnc23)cc1 |  |  |  | > 100 µM |  | > 100 µM |  | > 100 µM |  | > 100 µM |  | > 100 µM |  | > 100 µM |  | 62.2 µM |  | > 100 µM |  | > 100 µM
4 | CC(O)/C=C/C(CCC(C)CO)C(C)C (configuration not stated) |  | > 100 µM |  | > 100 µM |  | > 100 µM |  | > 100 µM |  | > 100 µM |  | > 100 µM |  | > 100 µM |  | > 100 µM |  | > 100 µM |  | > 100 µM
5 | Oc1ccc(/C=N\Nc2ccccn2)c(O)c1 | 0.241 µM | 0.719 µM | 2.14 µM | 9.55 µM | 1.01 µM | 8.71 µM |  |  | 0.382 µM | 10.6 µM | 1.45 µM | > 100 µM | 2.73 µM | 16.7 µM | 0.243 µM | 0.783 µM | 0.252 µM | 0.687 µM | 8.41 µM | > 100 µM
6 | COP(=O)(OC)C(NC(c1ccccc1)c1ccccc1)c1ccc2c(c1)OCO2 (configuration not stated) | 21.8 µM | 53.9 µM | 21.5 µM | 52.2 µM | 2.26 µM | 29.7 µM | 23.1 µM | 61.3 µM | 7.85 µM | 29.4 µM | 14.1 µM | 32.3 µM | 31.4 µM | 89.7 µM | 22.8 µM | 56.5 µM | 33.2 µM | 89 µM | 44.5 µM | > 100 µM
7 | COc1ccc(/C=N/N=C(\N)NO)cc1OC |  | > 100 µM |  | > 100 µM |  | > 100 µM |  | 96.9 µM |  | > 100 µM |  | > 100 µM |  | > 100 µM |  | > 100 µM |  | 92.3 µM |  | > 100 µM
8 | N#CC(=S)Nc1cccc(Cl)c1 |  |  |  | > 100 µM |  | > 100 µM |  | > 100 µM |  | > 100 µM |  | 61.4 µM |  | > 100 µM |  | 70.4 µM |  | > 100 µM |  | > 100 µM
9 | O=C(O)c1ccc2c(c1)Cc1cc([N+](=O)[O-])ccc1-2 |  | > 100 µM |  | > 100 µM |  | > 100 µM |  | > 100 µM |  | > 100 µM |  | 77.4 µM |  | > 100 µM |  | > 100 µM |  | > 100 µM |  | > 100 µM
10 | CCCC[C@H]1C(=O)O[C@H](C)[C@H](NC(=O)c2cccc(NC=O)c2O)C(=O)O[C@@H](C)[C@@H]1OC(=O)CC(C)C |  | 33.2 µM |  | 33.2 µM |  | 6.29 µM |  | 47.7 µM |  | 53 µM |  | 24.4 µM |  | 69.6 µM |  | 34.2 µM |  | 40.9 µM |  | 50.6 µM
11 | C/C(O)=C(\N=O)C(=O)NCCc1ccccc1 |  | > 100 µM |  | > 100 µM |  | > 100 µM |  | > 100 µM |  | > 100 µM |  | > 100 µM |  | > 100 µM |  | > 100 µM |  | > 100 µM |  | > 79.2 µM
12 | COc1cc2oc(=O)ccc2cc1C1OC(=O)C2OC21C (configuration not stated) |  | > 100 µM |  | > 100 µM |  | > 100 µM |  | > 100 µM |  | > 100 µM |  | > 100 µM |  | > 100 µM |  | > 100 µM |  | > 100 µM |  | > 100 µM
13 | CC(C)(C)N1CCC1C(N)=O (configuration not stated) | > 100 µM | > 100 µM | > 100 µM | > 100 µM | > 100 µM | > 100 µM | > 100 µM | > 100 µM | > 100 µM | > 100 µM | > 100 µM | > 100 µM | > 100 µM | > 100 µM | > 100 µM | > 100 µM | > 100 µM | > 100 µM | > 100 µM | > 100 µM
14 | Cc1cccc(C(C)(C)C)c1NC(=O)C(=O)C(C(=O)/C=C\c1ccccc1)C1OC(=O)c2ccccc21 (configuration not stated) |  | > 100 µM |  | > 100 µM |  | > 100 µM |  | > 100 µM |  | > 100 µM |  | > 100 µM |  | > 100 µM |  | > 100 µM |  | > 100 µM |  | > 100 µM
15 | Clc1ccc(-n2nnc(C3=NCCN3)c2-c2ccccc2)cc1 |  | > 100 µM |  | > 100 µM |  | > 100 µM |  | > 100 µM |  | > 100 µM |  | > 100 µM |  | > 100 µM |  | > 100 µM |  | > 100 µM |  | > 100 µM
16 | OCc1cn(Cc2cccc(Cl)c2)c2ccccc12 | 5.01 µM | 41.4 µM | 9.74 µM | 47.3 µM | 11 µM | > 69.8 µM | 11.3 µM | 29.6 µM | 10.6 µM | 44.4 µM | 0.632 µM | 20 µM | 0.823 µM | 5.61 µM | 5.38 µM | 21.1 µM |  | 1.87 µM | < 0.0145 µM | 0.21 µM
17 | Cc1cn(C2CC(F)C(CO)O2)c(=O)[nH]c1=O (configuration not stated) | > 100 µM | > 100 µM | > 100 µM | > 100 µM | > 100 µM | > 100 µM | > 100 µM | > 100 µM | > 100 µM | > 100 µM | > 100 µM | > 100 µM | > 100 µM | > 100 µM | > 100 µM | > 100 µM | > 100 µM | > 100 µM | > 100 µM | > 100 µM
18 | Cc1ccc2c(c1)nc(C(=O)c1ccco1)c(C(F)(F)F)[n+]2[O-] | 47.2 µM | > 100 µM | > 100 µM | > 100 µM | > 100 µM | > 100 µM | > 100 µM | > 100 µM | > 100 µM | > 100 µM | 64.6 µM | > 100 µM | 63.4 µM | > 100 µM | 51.4 µM | > 100 µM | 77 µM | > 100 µM | > 100 µM | > 100 µM
19 | CC1=C(/C=C/C(C)=C\C=C\C(C)=C\C(=O)Nc2ccc3c(c2)OCO3)C(C)(C)CCC1 | > 100 µM | > 100 µM | > 100 µM | > 100 µM | 22.6 µM | > 100 µM | > 100 µM | > 100 µM | 16.1 µM | > 100 µM | 2.93 µM | > 100 µM | 29.4 µM | > 100 µM | 1.65 µM | 18 µM | > 100 µM | > 100 µM | > 100 µM | > 100 µM
20 | CN(C)CCCn1c2c(c3cnccc3c1=O)C(=O)c1ccccc1-2 | 0.183 µM | 2.55 µM | 0.402 µM | 7.75 µM | 0.318 µM | 2.87 µM | 0.391 µM | 2.41 µM | 0.232 µM | 2.1 µM | 0.337 µM | 1.65 µM | 0.486 µM | 3.21 µM | 0.514 µM | 4.65 µM | 0.376 µM | 7.01 µM | 0.721 µM | 27.6 µM
21 | CC(=O)OC1C(=O)C(O)C(C)OC1O[C@@H]1C[C@@]2(C)[C@@H]3CC=C4[C@@H](C[C@H](O)C(=O)C4(C)C)[C@]3(C)C(=O)C[C@]2(C)[C@H]1[C@@](C)(O)C(=O)/C=C/C(C)(C)O (some centres not stated) |  | 4.95 µM |  | 5.42 µM |  | > 7.21 µM |  | > 10 µM |  | > 10 µM |  | 8.04 µM |  | 7.05 µM |  | 7.1 µM |  | 2.98 µM |  | 3.44 µM
22 | Nc1ccccc1C#C/C=C\C#Cc1ccccc1C(F)(F)F | 4.08 µM | 23.4 µM | 0.588 µM | 18.7 µM | 17.7 µM | > 100 µM | 0.422 µM | 9.74 µM | > 61.3 µM | > 100 µM | 1.46 µM | > 51 µM | 0.536 µM | 23.7 µM | 1.04 µM | > 27.7 µM | 1.1 µM | 10.1 µM | 8.3 µM | 27.9 µM
23 | N[C@@H](Cc1c[nH]c2ccccc12)C(=O)NC1CCN(C(=O)c2c[nH]c3ccccc23)CC1 | > 100 µM | > 100 µM | > 100 µM | > 100 µM | > 100 µM | > 100 µM | > 100 µM | > 100 µM | 63.5 µM | > 100 µM | > 100 µM | > 100 µM |  |  | > 100 µM | > 100 µM | > 100 µM | > 100 µM | > 100 µM | > 100 µM
24 | O=C(O)C(=Cc1ccnc2ccccc12)C(=O)O |  |  |  | > 100 µM |  | > 100 µM |  | > 100 µM |  | > 100 µM |  | > 100 µM |  | > 100 µM |  | > 100 µM |  | > 100 µM |  | > 100 µM
